Laboratory results taken from article PMC8979682, “Synthesis, Antioxidant, and Antidiabetic Activities of Ketone Derivatives of Succinimide” (Evidence-based Complementary and Alternative Medicine : eCAM, 2022).
Values after ≈ are worked out from the molar mass of the structure shown. One block for each molecule: values may come before it.

What was measured:
α-glucosidase = experiment: in vitro α-glucosidase inhibition; type: biochemical
Experimental: For in vitro α-glucosidase activity, samples were prepared by adding glucopyranoside to phosphate buffer solvent, and different concentrations of the synthesized compounds (31.25, 62.5, 125, 250, and 500 µg/ml), respectively, were added to this solution and then the enzyme glucosidase in distilled water (0.5 µg/ml) was also added to the above mixture. The reaction mixture thus prepared was subjected to incubation at 37°C for 20 minutes. The reaction was halted by adding HCl after incubation of the mixture. The intensity of the color was determined at 540 nm by spectrophotometer, and the formula given below was used for the determination of percent inhibition:(2) percent inhibition=absorbancecontrol−absorbancesample/absorbancecontrol×100.

α-amylase = experiment: in vitro α-amylase inhibition; type: biochemical
Experimental: The starch solution was added, following incubation of the mixture, and the reaction mixture thus prepared was kept in water bath at 100°C for some time. Microplate reader measured the intensity of the color at 656 nm. Following formula was used to determine percentage inhibition:(3) percent inhibition=absorbancecontrol−absorbancesample/absorbancecontrol×100.

ABTS scavenging activity = type: biochemical
Experimental: For the determination of the antioxidant activity of the synthesized compounds, the previously reported method for ABTS scavenging activity was used with slight modification. The stock solution of 2.4 mM of potassium per sulfate solution and 7 mM ABTS solution was prepared by mixing them in equal volumes for 16 h. The stock solution thus prepared was diluted using methyl alcohol to give absorption of 0.7 ± 0.02 units when studied at the wavelength of 734 nm using a spectrophotometer. Fresh ABTS solution was prepared for each ABTS scavenging assay. About 150 μL of the ABTS working solution was added to 50 μL of synthesized compounds and kept in darkness for 10 min. […] Methanol was used as blank, and standard ascorbic acid was run at the same time. The absorbance was calculated utilizing a microplate reader at 734 nm.

DPPH scavenging activity = type: biochemical
Experimental: The antioxidant assay of the synthesized compounds was conducted following the previously reported method. A freshly prepared DPPH solution (50 μL of 1.0 × 10^−3 M) was added in methyl alcohol. Methanol was used as a control in this experiment. The prepared mixture was subjected to incubation at 25°C for 30 min. A decrease in the DPPH free radical concentration was calculated using a spectrophotometer at a wavelength of 517 nm. After incubation ascorbic acid was used as a positive control. The antioxidant activity was determined as a percent (%) of inhibition using the formula given:(1) percent inhibition=absorbancecontrol−absorbancesample/absorbancecontrol×100.

[1] = test system: diabetic mice (by alloxan); experiment: antidiabetic activity in diabetic mice (by alloxan); type: in vivo
Experimental: Alloxan was used for the induction of diabetes mellitus according to reported procedure. Recently prepared Alloxan (ALX) was injected intraperitoneally to animals, fasting for 16 h, at a single dose of (150 mg/kg). […] Only diabetic animals, having random blood glucose level more than 200 mg/dl, were selected for studies. All the experimental procedure were approved from the ethical committee department of pharmacy, University of Swabi via letter No; UOS-06/2021.
A total of 30 animals were used to determine the hypoglycemic effect of the synthesized derivatives of succinimide. The experimental animals were segregated in six groups […], having five (5) animals in each group. Group I was designated as normal group and was given normal saline I/P only. Group II was given Tween 80, and Group III was given standard drug (glibenclamide) after the induction of diabetes. Group IV, Group V, and Group VI were given the various doses of synthesized compounds, respectively. […]

mice = experiment: oral glucose tolerance test (OGTT); type: in vivo; details: glucose 2 g/kg orally
Experimental: To perform OGTT mice fasted overnight were used including both control and treated mice. Glucose was administered orally at the dose of 2 g/kg against glibenclamide as standard drug. After administration of glucose, blood glucose level was calculated at time intervals of 0, 30, 60, and 120 min for assessment of the impact of exogenously given D-glucose on treated mice. OGTT was carried out 5 days before the completion of the study.
To perform OGTT, mice fasted overnight were used including both control and treated mice. Glucose was administered orally at the dose of 2 g/kg against glibenclamide as a standard drug. After administration of glucose, blood glucose level was calculated at time intervals of 0, 30, 60, and 120 min for assessment of the impact of exogenously given D-glucose on treated mice.

Compound: C[C@H]1O[C@H](O[C@H]2[C@H](O)[C@@H](O)[C@@H](O[C@H]3[C@H](O)[C@@H](O)C(O)O[C@@H]3CO)O[C@@H]2CO)[C@H](O)[C@@H](O)[C@@H]1N[C@H]1C=C(CO)[C@@H](O)[C@H](O)[C@H]1O (stereo partly drawn) [Acarbose, reference compound]
% inhibitions (α-glucosidase) (α-glucosidase; 31.25 µg/ml): 67.90 ± 0.45%
% inhibitions (α-glucosidase) (α-glucosidase; 62.50 µg/ml): 73.00 ± 0.30%
% inhibitions (α-glucosidase) (α-glucosidase; 125 µg/ml): 80.90 ± 0.60%
% inhibitions (α-glucosidase) (α-glucosidase; 250 µg/ml): 86.45 ± 0.90%
% inhibitions (α-glucosidase) (α-glucosidase; 500 µg/ml): 92.23 ± 0.22%
% inhibitions (α-amylase) (α-amylase; 31.25 µg/ml): 63.62 ± 0.58%
% inhibitions (α-amylase) (α-amylase; 62.50 µg/ml): 69.42 ± 1.55%
% inhibitions (α-amylase) (α-amylase; 125 µg/ml): 76.20 ± 0.49%
% inhibitions (α-amylase) (α-amylase; 250 µg/ml): 82.47 ± 0.71%
% inhibitions (α-amylase) (α-amylase; 500 µg/ml): 87.75 ± 0.42%

IC50 (ABTS) (ABTS scavenging activity): 6.84 µg/mL (≈ 38.8 µM)
IC50 (DPPH) (DPPH scavenging activity): 7.10 µg/mL (≈ 40.3 µM)
Compound: O=C1O[C@H]([C@@H](O)CO)C(O)=C1O [Ascorbic acid, reference compound]
(%) ABTS inhibitions (ABTS scavenging activity; 31.25 µg/ml): 63.89 ± 0.20%
(%) ABTS inhibitions (ABTS scavenging activity; 62.50 µg/ml): 75.45 ± 0.90%
(%) ABTS inhibitions (ABTS scavenging activity; 125 µg/ml): 77.61 ± 0.43%
(%) ABTS inhibitions (ABTS scavenging activity; 250 µg/ml): 82.40 ± 0.20%
(%) ABTS inhibitions (ABTS scavenging activity; 500 µg/ml): 87.08 ± 0.47%
(%) DPPH inhibitions (DPPH scavenging activity; 31.25 µg/ml): 68.42 ± 0.43%
(%) DPPH inhibitions (DPPH scavenging activity; 62.50 µg/ml): 73.22 ± 1.28%
(%) DPPH inhibitions (DPPH scavenging activity; 125 µg/ml): 79.52 ± 0.66%
(%) DPPH inhibitions (DPPH scavenging activity; 250 µg/ml): 84.56 ± 0.45%
(%) DPPH inhibitions (DPPH scavenging activity; 500 µg/ml): 90.65 ± 1.32%

Compound: O=C1CCCCC1C1CC(=O)N(c2ccccc2)C1=O (stereo not drawn) [BW1, (2-Oxocyclohexyl)-1-Phenylpyrrolidine-2,5-Dione]
IC50 (ABTS) (ABTS scavenging activity): 9.40 µg/mL (≈ 34.6 µM)
(%) ABTS inhibitions (ABTS scavenging activity; 31.25 µg/ml): 55.67 ± 0.32^∗∗∗ %
(%) ABTS inhibitions (ABTS scavenging activity; 62.50 µg/ml): 66.16 ± 0.16^∗∗∗ %
(%) ABTS inhibitions (ABTS scavenging activity; 125 µg/ml): 70.62 ± 0.25^∗∗∗ %
(%) ABTS inhibitions (ABTS scavenging activity; 250 µg/ml): 73.36 ± 0.84^∗∗∗ %
(%) ABTS inhibitions (ABTS scavenging activity; 500 µg/ml): 78.35 ± 0.23^∗∗∗ %
IC50 (DPPH) (DPPH scavenging activity): 10.84 µg/mL (≈ 40 µM)
(%) DPPH inhibitions (DPPH scavenging activity; 31.25 µg/ml): 62.03 ± 0.77^∗∗∗ %
(%) DPPH inhibitions (DPPH scavenging activity; 250 µg/ml): 77.23 ± 0.96^∗∗∗ %
(%) DPPH inhibitions (DPPH scavenging activity; 500 µg/ml): 85.83 ± 0.47^∗∗ %
IC50 (α-glucosidase) (α-glucosidase): 10.49 µg/mL (≈ 38.7 µM)
% inhibitions (α-glucosidase) (α-glucosidase; 31.25 µg/ml): 65.80 ± 0.90^ns %
% inhibitions (α-glucosidase) (α-glucosidase; 62.50 µg/ml): 70.40 ± 0.20^ns %
% inhibitions (α-glucosidase) (α-glucosidase; 125 µg/ml): 76.58 ± 0.63^ns %
% inhibitions (α-glucosidase) (α-glucosidase; 250 µg/ml): 83.45 ± 0.90^ns %
% inhibitions (α-glucosidase) (α-glucosidase; 500 µg/ml): 89.08 ± 1.04^ns %
IC50 (α-amylase) (α-amylase): 13.90 µg/mL (≈ 51.2 µM)
% inhibitions (α-amylase) (α-amylase; 31.25 µg/ml): 57.40 ± 0.40^∗∗∗ %
% inhibitions (α-amylase) (α-amylase; 62.50 µg/ml): 65.08 ± 0.66^∗∗∗ %
% inhibitions (α-amylase) (α-amylase; 125 µg/ml): 71.78 ± 0.44^∗∗∗ %
% inhibitions (α-amylase) (α-amylase; 250 µg/ml): 75.32 ± 0.40^∗∗∗ %
% inhibitions (α-amylase) (α-amylase; 500 µg/ml): 81.60 ± 0.00^∗∗∗ %
Change in body weight ([1]; dose 31.25 μg/kg): +2.3 Gm
Blood glucose level, 0 day ([1]; dose 31.25 μg/kg): 418 mg/dL
Blood glucose level, 4th day ([1]; dose 31.25 μg/kg): 408 mg/dL
Blood glucose level, 7th day ([1]; dose 31.25 μg/kg): 399 mg/dL
Blood glucose level, 10th day ([1]; dose 31.25 μg/kg): 382 mg/dL
Blood glucose level, 15th day ([1]; dose 31.25 μg/kg): 375 mg/dL
Change in body weight ([1]; dose 62.5 μg/kg): +4.3 Gm
Decrease in blood glucose after 15 days ([1]; dose 62.5 μg/kg): 34 mg/dL
Blood glucose level, 0 day ([1]; dose 62.5 μg/kg): 380 mg/dL
Blood glucose level, 4th day ([1]; dose 62.5 μg/kg): 371 mg/dL
Blood glucose level, 7th day ([1]; dose 62.5 μg/kg): 365 mg/dL
Blood glucose level, 10th day ([1]; dose 62.5 μg/kg): 351 mg/dL
Blood glucose level, 15th day ([1]; dose 62.5 μg/kg): 346 mg/dL
Change in body weight ([1]; dose 125 μg/kg): +4.1 Gm
Decrease in blood glucose after 15 days ([1]; dose 125 μg/kg): 49 mg/dL
Blood glucose level, 0 day ([1]; dose 125 μg/kg): 443 mg/dL
Blood glucose level, 4th day ([1]; dose 125 μg/kg): 431 mg/dL
Blood glucose level, 7th day ([1]; dose 125 μg/kg): 413 mg/dL
Blood glucose level, 10th day ([1]; dose 125 μg/kg): 401 mg/dL
Blood glucose level, 15th day ([1]; dose 125 μg/kg): 394 mg/dL
Change in body weight ([1]; dose 250 μg/kg): +5.7 Gm
Decrease in blood glucose after 15 days ([1]; dose 250 μg/kg): 207 mg/dL
Blood glucose level, 0 day ([1]; dose 250 μg/kg): 421 mg/dL
Blood glucose level, 4th day ([1]; dose 250 μg/kg): 397 mg/dL
Blood glucose level, 7th day ([1]; dose 250 μg/kg): 345 mg/dL
Blood glucose level, 10th day ([1]; dose 250 μg/kg): 219 mg/dL
Blood glucose level, 15th day ([1]; dose 250 μg/kg): 214 mg/dL
Change in body weight ([1]; dose 500 μg/kg): +7.1 Gm
Decrease in blood glucose after 15 days ([1]; dose 500 μg/kg): 121 mg/dL
Blood glucose level, 0 day ([1]; dose 500 μg/kg): 412 mg/dL
Blood glucose level, 4th day ([1]; dose 500 μg/kg): 388 mg/dL
Blood glucose level, 7th day ([1]; dose 500 μg/kg): 372 mg/dL
Blood glucose level, 10th day ([1]; dose 500 μg/kg): 312 mg/dL
Blood glucose level, 15th day ([1]; dose 500 μg/kg): 291 mg/dL
OGTT blood glucose, 0 minutes (mice): 165.8 mg/dL
OGTT blood glucose, 30 minutes (mice): 194.4 mg/dL
OGTT blood glucose, 60 minutes (mice): 211.8 mg/dL
OGTT blood glucose, 120 minutes (mice): 160.3 mg/dL

Compound: COc1ccc(Cl)cc1C(=O)NCCc1ccc(S(=O)(=O)NC(=O)NC2CCCCC2)cc1 [Glibenclamide, reference compound]
Change in body weight ([1]; dose 0.5 (μg/kg)): +10.3 Gm
Decrease in blood glucose after 15 days ([1]; dose 0.5 (μg/kg)): 275 mg/dL
Blood glucose level, 0 day ([1]; dose 0.5 (μg/kg)): 473 mg/dL
Blood glucose level, 4th day ([1]; dose 0.5 (μg/kg)): 303 mg/dL
Blood glucose level, 7th day ([1]; dose 0.5 (μg/kg)): 257 mg/dL
Blood glucose level, 10th day ([1]; dose 0.5 (μg/kg)): 212 mg/dL
Blood glucose level, 15th day ([1]; dose 0.5 (μg/kg)): 198 mg/dL
OGTT blood glucose, 0 minutes (mice): 151.5 mg/dL
OGTT blood glucose, 30 minutes (mice): 176.7 mg/dL
OGTT blood glucose, 60 minutes (mice): 214.3 mg/dL
OGTT blood glucose, 120 minutes (mice): 140.5 mg/dL
